In brackets after ≈: the same amount, converted by molar mass.
Tests used:
[1] = physchem; details: for solubility: 20 °C, organic solvent or mixture
Experimental: A) Pyraclostrobin was added at 20° C. to benzaldehyde dimethyl acetal or p-anisaldehyde dimethyl acetal, with stirring.

[2] = Flash point (DIN 53213-1); type: physicochemical; details: measured as specified in DIN 53213-1
[3] = EU directive 67/548/EEC, 1999/45/EC or 88/379/EEC; cited from earlier work
[4] = Experimental: The solubility of benzaldehyde dimethyl acetal or p-anisaldehyde dimethyl acetal in water at 20° C. was analyzed.
[5] = Viscosity; type: physicochemical; details: 20° C.

## C#CCN1C(=O)C(F)(F)Oc2cc(F)c(-n3c(=O)n(C)c(=S)n(C)c3=O)cc21 [1,5-dimethyl-6-thioxo-3-(2,2,7-trifluoro-3-oxo-4-(prop-2-ynyl)-3,4-dihydro-2H-benzo[b][1,4]oxazin-6-yl)-1,3,5-triazinan-2,4-dione]
[1]; maximum solubility in Solvesso 150 ND
  solubility: 19 mg/mL (≈ 46.1 mM)
[1]; maximum solubility in Solvesso 200 ND
  solubility: 63 mg/mL (≈ 153 mM)
[1]; maximum solubility in p-anisaldehyde dimethyl acetal
  solubility: 214 mg/mL (≈ 519 mM)

## COC(OC)c1ccccc1 [Benzaldehyde dimethyl acetal, reference compound]
[2]
  flash point: 69 °C
[3]
  EU R phrase: R22—harmful if swallowed
  EU hazard classification: Xn—harmful

## COC(=O)N(OC)c1ccccc1COc1ccn(-c2ccc(Cl)cc2)n1 [Pyraclostrobin, reference compound]
[1]; 20° C., with stirring, solvent benzaldehyde dimethyl acetal (not inventive)
  solubility in benzaldehyde dimethyl acetal: at least 50 % by weight
[1]; 20° C., with stirring, solvent p-anisaldehyde dimethyl acetal
  solubility in p-anisaldehyde dimethyl acetal: at least 50 % by weight

## COc1ccc(C(OC)OC)cc1 [p-Anisaldehyde dimethyl acetal]
[2]
  flash point: 114 °C
[4]
  solubility in water: ≤ 0.1 % by weight
[3]
  EU R phrase: without R phrase
  EU hazard classification: without classification
[5]
  viscosity: 5.5 mPas

From patent US9585382B2, “Composition comprising a pesticide and an acetal solvent” (priority 2011, dated 2017)
